Measured values reported in patent publication US9359367B2, “Tetrahydroquinazolinone derivatives as PARP inhibitors” (Lupin Limited, priority 2012, dated 2016).

target: T1, PARP1 (Homo sapiens, UniProt P09874); experiment: PARP1 Biochemical Assay (BPS Bioscience kit, chemiluminescence); conditions: histone-coated plate, biotinilated NAD+, 25° C. for 60 min, luminescence, read-out: PARP 1 inhibition IC50
T1 construct: purchased BPS Bioscience
Experimental: The assay was performed using BPS Bioscience kit. The 96-well strip plate was coated with 50 μl of histone mixture and incubated at 4° C. overnight. Next day the wells were blocked by adding 100 μl of blocking buffer. The plate was washed and 25 μl of appropriate concentration of PARP1 (25-75 ng/well) was added in all the Test and Positive control wells. In Negative control wells enzyme was replaced with 25 μl of water. To it 5 μl each of 10×PARP assay buffer and activated DNA was added in all the wells (Test, Positive and Negative control wells). 10× concentration of test compounds were prepared and 5 μl test compounds were added respective wells. Reaction volume was made up to 45 μl by adding water to all the wells. Finally, 5 μl of 10×PARP assay mixture containing biotinilated NAD^+ was added in each well and the plate was incubated at ambient temperature (25° C.) for 60 min. After washing the plate 50 μl of Streptavidin-HRP was added in each well and incubated the plate at RT for 30 min. The plate was washed and the luminescence was read in PHERAStar plate reader after adding 100 μl of chemiluminescent substrate.
PARP inhibition was calculated using the following formula: % PARP inhibition=100−[(RLU test compound treated sample−RLU negative control)/(RLU Positive control−RLU negative control)×100]
IC50 values were calculated by plotting % inhibition against the respective concentrations of test compounds using GraphPad Prism 5.

T1 sequence (P09874 whole entry): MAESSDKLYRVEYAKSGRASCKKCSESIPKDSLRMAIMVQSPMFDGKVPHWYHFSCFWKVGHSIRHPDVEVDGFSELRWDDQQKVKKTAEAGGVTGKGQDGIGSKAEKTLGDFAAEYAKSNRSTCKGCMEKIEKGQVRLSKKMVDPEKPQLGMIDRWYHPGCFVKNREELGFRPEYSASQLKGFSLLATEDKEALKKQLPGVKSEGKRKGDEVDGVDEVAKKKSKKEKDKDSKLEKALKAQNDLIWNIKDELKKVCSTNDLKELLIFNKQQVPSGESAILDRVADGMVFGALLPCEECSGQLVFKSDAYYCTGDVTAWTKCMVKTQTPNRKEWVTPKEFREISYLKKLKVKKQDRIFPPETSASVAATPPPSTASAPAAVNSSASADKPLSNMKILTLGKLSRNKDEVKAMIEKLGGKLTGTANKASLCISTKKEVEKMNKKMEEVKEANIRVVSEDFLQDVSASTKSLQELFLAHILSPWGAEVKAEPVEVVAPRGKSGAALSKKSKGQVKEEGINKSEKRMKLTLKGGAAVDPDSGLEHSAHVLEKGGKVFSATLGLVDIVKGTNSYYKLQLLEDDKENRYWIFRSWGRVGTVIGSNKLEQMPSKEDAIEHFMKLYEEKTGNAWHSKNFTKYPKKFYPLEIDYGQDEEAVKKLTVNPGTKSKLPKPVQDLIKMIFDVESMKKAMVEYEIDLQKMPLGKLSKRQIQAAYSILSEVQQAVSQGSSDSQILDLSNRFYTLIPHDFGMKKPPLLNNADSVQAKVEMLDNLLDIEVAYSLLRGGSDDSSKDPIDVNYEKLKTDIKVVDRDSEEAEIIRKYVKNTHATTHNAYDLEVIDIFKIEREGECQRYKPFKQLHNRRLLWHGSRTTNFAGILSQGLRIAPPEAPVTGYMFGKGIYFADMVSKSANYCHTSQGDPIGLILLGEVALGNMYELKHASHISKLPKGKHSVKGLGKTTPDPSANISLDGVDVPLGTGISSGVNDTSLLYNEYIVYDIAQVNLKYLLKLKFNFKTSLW

`O=C1CN(c2ccc(F)cc2)CCN1CCCc1nc2c(c(=O)[nH]1)CC1(CC2)CC1` [Compound 33, 2′-(3-(4-(4-fluorophenyl)-2-oxopiperazin-1-yl)propyl)-7′,8′-dihydro-3′H-spiro[cyclopropane-1,6′-quinazolin]-4′(5′H)-one] and `O=C1CN([C@H]2C=C(c3nc4c(c(=O)[nH]3)CC3(CC4)CC3)CC2)CCN1c1ccc(F)cc1` [Compound 45, (R)2′-(3-(4-(4-fluorophenyl)-3-oxopiperazin-1-yl)cyclopent-1-en-1-yl)-7′,8′-dihydro-3′H-spiro[cyclopropane-1,6′-quinazolin]-4′(5′H)-one] fall in the same range of IC50: 5000 to 500000 nM for the first, 5000 to 500000 nM for the second.

Compared with `O=c1[nH]c(CCCN2CCN(c3ccc(Cl)cc3Cl)CC2)nc2c1CC1(CC2)CC1` [Compound 34, 2′-(3-(4-(2,4-dichlorophenyl)piperazin-1-yl)propyl)-7′,8′-dihydro-3′H-spiro[cyclopropane-1,6′-quinazolin]-4′(5′H)-one], `O=c1[nH]c(C2=C[C@H](N3CCN(c4ccc(Cl)c(Cl)c4)CC3)CC2)nc2c1CC1(CC2)CC1` [Compound 59, (R)-2′-(3-(4-(3,4-dichlorophenyl)piperazin-1-yl)cyclopent-1-en-1-yl)-7′,8′-dihydro-3′H-spiro[cyclopropane-1,6′-quinazolin]-4′(5′H)-one] is higher in IC50: 1 to 500 nM for the first, 5000 to 500000 nM for the second. The first is the more potent here.

`O=c1[nH]c(CCCN2CCN(c3ccc(F)cc3)CC2)nc2c1C1CCC2C1` (stereo not drawn) [Compound 35, 2-(3-(4-(4-fluorophenyl)piperazin-1-yl)propyl)-5,6,7,8-tetrahydro-5,8-methanoquinazolin-4(3H)-one] and `O=c1[nH]c(CCCN2CCN(c3ccc(Cl)cc3)CC2)nc2c1C1CCC2C1` (stereo not drawn) [Compound 36, 2-(3-(4-(4-chlorophenyl)piperazin-1-yl)propyl)-5,6,7,8-tetrahydro-5,8-methanoquinazolin-4(3H)-one] fall in the same range of IC50: 5000 to 500000 nM for the first, 5000 to 500000 nM for the second.

`O=c1[nH]c(C2=C[C@H](N3CCN(c4ccc(Cl)cc4)CC3)CC2)nc2c1CC1(CC2)CC1` [Compound 37, (R)-2′-(3-(4-(4-chlorophenyl)piperazin-1-yl)cyclopent-1-en-1-yl)-7′,8′-dihydro-3′H-spiro[cyclopropane-1,6′-quinazolin]-4′(5′H)-one] and `O=c1[nH]c(C2=C[C@@H](N3CCN(c4ccc(Cl)cc4)CC3)CC2)nc2c1CC1(CC2)CC1` [Compound 38, (S)-2′-(3-(4-(4-chlorophenyl)piperazin-1-yl)cyclopent-1-en-1-yl)-7′,8′-dihydro-3′H-spiro[cyclopropane-1,6′-quinazolin]-4′(5′H)-one] fall in the same range of IC50: 1 to 500 nM for the first, 1 to 500 nM for the second.

`O=c1[nH]c(C2=CC(N3CCN(c4ccncc4)CC3)CC2)nc2c1CC1(CC2)CC1` (stereo not drawn) [Compound 39, 2′-(3-(4-(pyridin-4-yl)piperazin-1-yl)cyclopent-1-en-1-yl)-7′,8′-dihydro-3′H-spiro[cyclopropane-1,6′-quinazolin]-4′(5′H)-one] and `O=c1[nH]c(C2=C[C@H](N3CCN(c4ccc(F)cc4)CC3)CC2)nc2c1CC1(CC2)CC1` [Compound 42, (R)-2′-(3-(4-(4-fluorophenyl)piperazin-1-yl)cyclopent-1-en-1-yl)-7′,8′-dihydro-3′H-spiro[cyclopropane-1,6′-quinazolin]-4′(5′H)-one] fall in the same range of IC50: 1 to 500 nM for the first, 1 to 500 nM for the second.

Compared with `O=c1[nH]c(C2=C[C@@H](N3CCN(c4ccc(Cl)cc4)CC3)CC2)nc2c1CCCC21CC1` [Compound 40, (S)-2′-(3-(4-(4-chlorophenyl)piperazin-1-yl)cyclopent-1-en-1-yl)-6′,7′-dihydro-3′H-spiro[cyclopropane-1,8′-quinazolin]-4′(5′H)-one], `O=c1[nH]c(C2=C[C@H](N3CCN(c4ccc(Cl)cc4)CC3)CC2)nc2c1CCCC21CC1` [Compound 41, (R)-2′-(3-(4-(4-chlorophenyl)piperazin-1-yl)cyclopent-1-en-1-yl)-6′,7′-dihydro-3′H-spiro[cyclopropane-1,8′-quinazolin]-4′(5′H)-one] is higher in IC50: 1 to 500 nM for the first, 5000 to 500000 nM for the second. The first is the more potent here.

First: O=c1[nH]c(C2=C[C@@H](N3CCN(c4ccc(F)cc4)CC3)CC2)nc2c1CC1(CC2)CC1 [Compound 43, (S)-2′-(3-(4-(4-fluorophenyl)piperazin-1-yl)cyclopent-1-en-1-yl)-7′,8′-dihydro-3′H-spiro[cyclopropane-1,6′-quinazolin]-4′(5′H)-one]
Second: O=c1[nH]c(C2=CC(N3CCN(c4ccc(Br)cc4)CC3)CC2)nc2c1CC1(CC2)CC1 (stereo not drawn) [Compound 50, 2′-(3-(4-(4-bromophenyl)piperazin-1-yl)cyclopent-1-en-1-yl)-7′,8′-dihydro-3′H-spiro[cyclopropane-1,6′-quinazolin]-4′(5′H)-one]
The IC50 of the first is higher: 5000 to 500000 nM for the first, 1 to 500 nM for the second.

`O=C(NC1CC1)c1ccc(N2CCN(C3C=C(c4nc5c(c(=O)[nH]4)CC4(CC5)CC4)CC3)CC2)cc1` (stereo not drawn) [Compound 44, N-cyclopropyl-4-(4-(3-(4′-oxo-4′,5′,7′,8′-tetrahydro-3′H-spiro[cyclopropane-1,6′-quinazolin]-2′-yl)cyclopent-2-en-1-yl)piperazin-1-yl)benzamide] and `CNC(=O)c1ccc(N2CCN([C@@H]3C=C(c4nc5c(c(=O)[nH]4)CC4(CC5)CC4)CC3)CC2)cc1` [Compound 53, (S)—N-methyl-4-(4-(3-(4′-oxo-4′,5′,7′,8′-tetrahydro-3′H-spiro[cyclopropane-1,6′-quinazolin]-2′-yl)cyclopent-2-en-1-yl)piperazin-1-yl)benzamide] fall in the same range of IC50: 1 to 500 nM for the first, 1 to 500 nM for the second.

`O=c1[nH]c(C2=C[C@H](N3CC=C(c4ccc(Cl)cc4)CC3)CC2)nc2c1CC1(CC2)CC1` [Compound 46, (R)-2′-(3-(4-(4-chlorophenyl)-5,6-dihydropyridin-1(2H)-yl)cyclopent-1-en-1-yl)-7′,8′-dihydro-3′H-spiro[cyclopropane-1,6′-quinazolin]-4′(5′H)-one] and `O=c1[nH]c(C2=C[C@@H](N3CC=C(c4ccc(Cl)cc4)CC3)CC2)nc2c1CC1(CC2)CC1` [Compound 47, (S)-2′-(3-(4-(4-chlorophenyl)-5,6-dihydropyridin-1(2H)-yl)cyclopent-1-en-1-yl)-7′,8′-dihydro-3′H-spiro[cyclopropane-1,6′-quinazolin]-4′(5′H)-one] fall in the same range of IC50: 1 to 500 nM for the first, 1 to 500 nM for the second.

`O=c1[nH]c(C2=C[C@H](N3CCN(c4ccc(F)cc4)CC3)CC2)nc2c1CCCC21CC1` [Compound 48, (R)-2′-(3-(4-(4-fluorophenyl)piperazin-1-yl)cyclopent-1-en-1-yl)-6′,7′-dihydro-3′H-spiro[cyclopropane-1,8′-quinazolin]-4′(5′H)-one] and `O=c1[nH]c(C2=C[C@@H](N3CCN(c4ccc(F)cc4)CC3)CC2)nc2c1CCCC21CC1` [Compound 49, (S)-2′-(3-(4-(4-fluorophenyl)piperazin-1-yl)cyclopent-1-en-1-yl)-6′,7′-dihydro-3′H-spiro[cyclopropane-1,8′-quinazolin]-4′(5′H)-one] fall in the same range of IC50: 1 to 500 nM for the first, 1 to 500 nM for the second.

`O=c1[nH]c(C2=C[C@@H](N3CC=C(c4ccc(F)cc4)CC3)CC2)nc2c1CC1(CC2)CC1` [Compound 51, (S)-2′-(3-(4-(4-fluorophenyl)-5,6-dihydropyridin-1(2H)-yl)cyclopent-1-en-1-yl)-7′,8′-dihydro-3′H-spiro[cyclopropane-1,6′-quinazolin]-4′(5′H)-one] and `O=c1[nH]c(C2=C[C@H](N3CC=C(c4ccc(F)cc4)CC3)CC2)nc2c1CC1(CC2)CC1` [Compound 52, (R)-2′-(3-(4-(4-fluorophenyl)-5,6-dihydropyridin-1 (2H)-yl)cyclopent-1-en-1-yl)-7′,8′-dihydro-3′H-spiro[cyclopropane-1,6′-quinazolin]-4′(5′H)-one] fall in the same range of IC50: 1 to 500 nM for the first, 1 to 500 nM for the second.

`CNC(=O)c1ccc(N2CCN([C@H]3C=C(c4nc5c(c(=O)[nH]4)CC4(CC5)CC4)CC3)CC2)cc1` [Compound 54, (R)—N-methyl-4-(4-(3-(4′-oxo-4′,5′,7′,8′-tetrahydro-3′H-spiro[cyclopropane-1,6′-quinazolin]-2′-yl)cyclopent-2-en-1-yl)piperazin-1-yl)benzamide] and `O=c1[nH]c(C2=C[C@H](N3CCN(c4ccc(Cl)cn4)CC3)CC2)nc2c1CC1(CC2)CC1` [Compound 57, (R)-2′-(3-(4-(5-chloropyridin-2-yl)piperazin-1-yl)cyclopent-1-en-1-yl)-7′,8′-dihydro-3′H-spiro[cyclopropane-1,6′-quinazolin]-4′(5′H)-one] fall in the same range of IC50: 1 to 500 nM for the first, 1 to 500 nM for the second.

First: O=c1[nH]c(C2=C[C@@H](N3CCC(c4ccc(Cl)cc4)CC3)CC2)nc2c1CC1(CC2)CC1 [Compound 55, (S)-2′-(3-(4-(4-chlorophenyl)piperidin-1-yl)cyclopent-1-en-1-yl)-7′,8′-dihydro-3′H-spiro[cyclopropane-1,6′-quinazolin]-4′(5′H)-one]
Second: O=c1[nH]c(C2=C[C@H](N3CCC(c4ccc(Cl)cc4)CC3)CC2)nc2c1CC1(CC2)CC1 [Compound 56, (R)-2′-(3-(4-(4-chlorophenyl)piperidin-1-yl)cyclopent-1-en-1-yl)-7′,8′-dihydro-3′H-spiro[cyclopropane-1,6′-quinazolin]-4′(5′H)-one]
The IC50 of the first is higher: 501 to 5000 nM for the first, 1 to 500 nM for the second.

Compound `O=c1[nH]c(C2=C[C@H](N3CCN(c4ccc(F)cn4)CC3)CC2)nc2c1CC1(CC2)CC1` [Compound 58, (R)-2′-(3-(4-(5-fluoropyridin-2-yl)piperazin-1-yl)cyclopent-1-en-1-yl)-7′,8′-dihydro-3′H-spiro[cyclopropane-1,6′-quinazolin]-4′(5′H)-one] has an IC50 of 1 to 500 nM.
